One may read the IC50 as the concentration that gives 50% inhibition. As a reminder, the Kd is a measure of binding affinity in units of concentration. Broadly, the koff is the first-order rate constant of dissociation. The kon is the second-order rate constant of association.

Like-named read-outs stand apart in the source and are kept apart here. Where a SMILES comes first, the peptide text is derived from it. [ ]: non-standard residue; d: D form. pS = N[C@@H](COP(=O)(O)O)C(=O)O

Assay [1] has as its target T1, 14-3-3 zeta (Homo sapiens, UniProt P63104).
T1 construct: made in house; host or cells: E. coli DH5α (vector pGEX-KT)
T1 sequence (P63104 1-245): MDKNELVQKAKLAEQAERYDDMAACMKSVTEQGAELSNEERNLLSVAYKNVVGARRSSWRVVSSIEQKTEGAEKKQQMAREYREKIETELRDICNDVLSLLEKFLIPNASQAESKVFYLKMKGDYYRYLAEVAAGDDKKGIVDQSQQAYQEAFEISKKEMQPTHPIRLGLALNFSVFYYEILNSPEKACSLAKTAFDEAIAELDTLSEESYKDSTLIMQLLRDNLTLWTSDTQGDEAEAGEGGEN
Briefly: Displacement of 32P-labeled phosphorylated Raf-259 peptide from immobilized GST/14-3-3 zeta (scintigraphy). The assay is classed as binding. The protocol: The 14-3-3 protein isoforms for use in binding studies with the above peptides were prepared as proteins fused with glutathione-S-transferase (GST) and immobilized to glutathione agarose beads. GST/14-3-3 fusion proteins were made by generating BamHI and EcoRI restriction endonuclease sites (underlined) at the 5' and 3' ends respectively of the 14-3-3 cDNAs by polymerase chain reaction (PCR) using the following isoform sequence specific pairs of primers: 14-3-3 beta, […] (SEQ ID NO: 11), […] (SEQ ID NO: 12); 14-3-3 eta […] (SEQ ID NO: 13), […] (SEQ ID NO: 14); 14-3-3 tau […] (SEQ ID NO: 15), […] (SEQ ID NO: 16); 14-3-3 zeta […] (SEQ ID NO: 17), […] (SEQ ID NO: 18). The cDNA products were digested with BamHI and EcoRI, subcloned into the vector pGEX-KT (Guan and Dixon, Anal Biochem 192: 262-7, 1991 which is incorporated by reference). The vector was used to transform the DH5α strain of E. Coli. GST-14-3-3 fusion protein expression in log-growth phase bacterial cultures was accomplished by induction with 100 μM isopropyl β-D-thiogalactopyranoside (IPTG; Gold Biotechnology, St. Louis) for 4 hours. Cells were disrupted by sonication and lysates, containing 1% Triton X-100, were incubated with glutathione agarose beads (Sigma, St. Louis) at 4° C. overnight. Fusion proteins were eluted by incubation with 10 mM reduced glutathione (Sigma, St. Louis) in phosphate buffered saline for 1 hour at room temperature, dialyzed in phosphate buffered saline and quantitated by Coomassie staining SDS polyacrylamine gels compared against bovine serum albumin standards.
The Raf-259 peptide (SEQ ID NO: 4) was phosphorylated in vitro using protein kinase A (PKA) and [^32 P]-γ-ATP following the manufacturers instruction (PKA, New England Biolabs) with 20 μCi of [^32 P]-γ-ATP (NEN-Dupont, 6000 Ci/mmol). The efficiency of phosphorylation was calculated to be between 7 and 12% based upon the specific activity of the labelled peptide.
The labeled peptide was then incubated with immobilized 14-3-3 zeta fusion protein and binding of the labelled peptide was measured. […] Binding was also sequence specific. […]

For assay [2], the target named is T1, 14-3-3 zeta. Briefly: Surface plasmon resonance, GST-14-3-3 zeta binding to immobilized biotinylated Raf-259 peptide (binding and kinetics). The settings on record: isoform zeta. The protocol:
These experiments were performed using the BIAcore 2000 (Pharmacia). The basic principles and detection methods have been reviewed previously (Jonsson et al. Biotech. 11:620-7, 1991; Jonsson et al. Ann Bio Clin 51:19-26, 1993 which are incorporated by reference). In brief, 5 μl of the biotinylated raf-259 peptide (1 nM) was immobilized onto streptavidin-coated (SA5, Pharmacia) sensor chips at a flow rate of 5 μl/min at 25° C. […] To phosphorylate the immobilized peptides, 5 U of PKA in a buffer containing 200 μM ATP in 50 μl was infused over the chip at a flow rate of 2 μl/min at 30° C.
(§1) Because the surface plasmon resonance detects binding in real time, this method can be used to directly determine the rates of association (kon) and dissociation (koff). For these kinetic measurements, GST/14-3-3 fusion proteins were injected over a range of concentrations between 200 nM and 5 μM. The "on" rate, kon, was determined by calculating dR/dt for the initial linear portion of association using the Biaevaluation software (Pharmacia). Because ligand rebinding to the sensor chip can affect the "off" rate (koff, Panayotou et al. Mol Cell Biol 13:3567-76, 1993 which is incorporated by reference), we measured the "off" rate in the presence of 50 μM free ligand by using the coinject function of the Biacore. The "off" rate measured in the absence of 50 μM free ligand was approximately 10-fold lower.
The biotinylated, […] Raf-1 peptide (SEQ ID NO: 4) was coupled to avidin coated chip surface to study the kinetics of its binding to 14-3-3 zeta. The association rate was determined to be approximately 2.3×10^4 M^-1×s^-1 and the dissociation rate was determined to be approximately 2.8×10^-3 s^-1. To minimize the effects of protein rebinding to the surface of the sensor chip, the dissociation rate was measured in the presence of 50 μM free phosphorylated Raf-1 peptide.
(In SPR one partner is held on a chip, and binding of the other changes the refractive index at the surface.)

The target in another assay is T2, 14-3-3 eta (Homo sapiens, UniProt Q04917).
T2 construct: made in house; host or cells: E. coli DH5α (vector pGEX-KT)
T2 sequence (Q04917 1-246): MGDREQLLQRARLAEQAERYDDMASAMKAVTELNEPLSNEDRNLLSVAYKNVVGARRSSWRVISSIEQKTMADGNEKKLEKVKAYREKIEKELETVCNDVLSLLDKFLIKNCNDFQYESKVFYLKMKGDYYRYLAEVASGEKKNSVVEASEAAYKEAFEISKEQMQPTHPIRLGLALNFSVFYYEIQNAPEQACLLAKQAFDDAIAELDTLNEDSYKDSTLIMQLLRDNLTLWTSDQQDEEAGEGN
Briefly: Surface plasmon resonance kinetics, 14-3-3 eta binding to phosphorylated Raf-259 peptide. The settings on record: isoform eta. How it is done:
as §1
There are seven known isoforms of 14-3-3 which form homo- and heterodimers in vivo. If different isoforms of 14-3-3 could bind to proteins with distinct specificities, heterodimeric forms of 14-3-3 might function as modular linker proteins, bringing together different proteins into a single complex. We were, therefore, interested in determining whether different 14-3-3 isoforms recognize phosphoserine in a sequence specific fashion. This hypothesis was tested by expressing and purifying three other 14-3-3 isoforms, eta, beta and tau, and measuring their affinity towards the panel of phosphorylated peptides generated above. Using the Surface Plasmon Resonance method, the "on" and "off" rates for 14-3-3 binding to the phosphorylated Raf-259 peptide were calculated (Table 6).

Turning to `CC(C)C[C@H](N)C(=O)N[C@@H](CO)C(=O)N[C@@H](CCC(N)=O)C(=O)N[C@@H](CCCNC(=N)N)C(=O)N[C@@H](CCC(N)=O)C(=O)N[C@@H](CCCNC(=N)N)C(=O)N[C@@H](CO)C(=O)N[C@H](C(=O)N[C@@H](COP(=O)(O)O)C(=O)N[C@H](C(=O)N1CCC[C@H]1C(=O)N[C@@H](CC(N)=O)C(=O)N[C@H](C(=O)N[C@@H](Cc1c[nH]cn1)C(=O)N[C@@H](C)C(=O)O)C(C)C)[C@@H](C)O)[C@@H](C)O` [pS-Raf-259] (H-LSQRQRST[pS]TPNVHA-OH), the IC50 at 14-3-3 zeta [1] (corrected for 7-12% efficiency of in vitro phosphorylation, read-out: true IC50) lay in the range of 0.07 to 0.24 µM; on 14-3-3 zeta [1] (not corrected for efficiency of phosphorylation, read-out: IC50), 1 to 2 µM. Also, the Kd at 14-3-3 zeta [2] (read-out: KD) came to 0.122 µM; on 14-3-3 eta, 0.128 µM. Besides, the koff worked out at 0.0028 s⁻¹ on 14-3-3 zeta [2] (read-out: koff) and 0.0029 s⁻¹ on 14-3-3 eta. Moreover, the kon on 14-3-3 zeta [2] (read-out: kon) stood at 23000 M⁻¹ s⁻¹; on 14-3-3 eta, 22600 M⁻¹ s⁻¹.

The record behind these values is patent US6207393A, “Inhibition of intracellular signal transduction by 14-3-3-binding peptides” (Washington University, priority 1999, dated 2001).
